Active and inactive are the calls of the source. The calls are words filed in the database; no cut-off is given here.
Assays:
[1] = tested on: Cortical neurone; experiment: Neuroprotective activity in Sprague-Dawley rat cortical neurons assessed as inhibition of amyloid beta (25 to 35 residues)-induced neurotoxicity compound pretreated at 10 to 50 uM for 2 hrs followed by addition of 10 uM amyloid beta (25 to 35 residues) for 40 hrs by MTT assay; type: functional
[2] = Neuroprotective activity in Sprague-Dawley rat cortical neurons assessed as inhibition of amyloid beta (25 to 35 residues)-induced neurotoxicity compound pretreated at 50 uM for 2 hrs followed by addition of 10 uM amyloid beta (25 to 35 residues) for 40 hrs by MTT assay; type: functional, Cortical neurone

CO[C@H](c1ccccc1)[C@H]1[C@H](c2ccccc2)[C@H](O)C(=O)N1C
inhibition [1]: inactive

CO[C@H](c1ccccc1)[C@@H]1[C@@H](c2ccccc2)[C@H](O)C(=O)N1C
inhibition [1]: inactive

CO[C@@H](c1ccccc1)[C@@H]1[C@@H](c2ccccc2)[C@H](O)C(=O)N1C
inhibition (INH) [2]: 22.24%

— ChEMBL document CHEMBL3739332, “γ- and δ-Lactams from the Leaves of Clausena lansium” (2015)
